From ChEMBL document CHEMBL1201862, “PubChem BioAssay data set” (2004)
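Protocol summary: plate cells (96-well), add compound at 5 concentrations, incubate 48 h, interpolate endpoints linearly. The concentration for 50% growth inhibition is given as GI50.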 The source made the active and inactive calls. Rule as the data show it: active = GI50 up to about 1.1 µM and inactive = higher.

How the values were obtained:
Assay in all cases: DTP human tumour cell line panel, 48 h
DMS-273 = system: DMS-273
DMS-114 = system: DMS-114
SNB-78 = system: SNB-78
HOP-18 = system: HOP-18
XF498 = system: XF498
KM-20L2 = system: KM-20L2
LXFL 529 = system: LXFL 529
M19-MEL = system: M19-MEL
RXF 631 = system: RXF 631

Measured: GI50

COC(=O)C1CC(C(=O)OC)c2nc3cc(C)c(C)cc3nc21 (configuration not stated)
inactive: DMS-273 > 100 µM | DMS-114 > 100 µM | SNB-78 > 100 µM | HOP-18 41.7 µM | XF498 > 100 µM | KM-20L2 > 100 µM | LXFL 529 > 100 µM | M19-MEL > 100 µM | RXF 631 > 100 µM

CCOc1ccccc1/N=N/c1ccc2oc(=O)c(C(C)=O)cc2c1
inactive: DMS-273 > 100 µM | DMS-114 > 100 µM | SNB-78 24.4 µM | XF498 30.1 µM | KM-20L2 > 100 µM | LXFL 529 > 100 µM | M19-MEL > 100 µM

O=C1CCC2(c3ccccc3)OCC([C@@H](O)c3ccccc3)N12 (some centres not stated)
inactive: DMS-273 > 100 µM | DMS-114 > 100 µM | SNB-78 > 100 µM | HOP-18 > 100 µM | XF498 > 100 µM | KM-20L2 > 100 µM | M19-MEL > 100 µM

C[N+](C)(C)CC1CCCC/C1=N\O (configuration not stated)
inactive: DMS-273 > 100 µM | DMS-114 > 100 µM | SNB-78 > 100 µM | HOP-18 > 100 µM | KM-20L2 > 100 µM | LXFL 529 > 100 µM | RXF 631 > 100 µM

CC(C)C1CNC2N1C(=O)C2(C)OCc1ccccc1 (configuration not stated)
inactive: DMS-273 > 100 µM | DMS-114 > 100 µM | KM-20L2 > 100 µM | LXFL 529 > 100 µM | M19-MEL > 100 µM

CN(C)CCCNc1ccnc2cccc([N+](=O)[O-])c12
inactive: SNB-78 12.9 µM | KM-20L2 11.5 µM

O=C(O)C1OC(Oc2cc(O)c3c(=O)cc(-c4ccc(O)cc4)oc3c2)C(O)C(O)C1O (configuration not stated)
inactive: DMS-273 > 100 µM | DMS-114 > 100 µM | SNB-78 > 100 µM | XF498 33.6 µM | KM-20L2 > 100 µM | LXFL 529 > 100 µM | M19-MEL > 100 µM

COc1cc(NCC(C#N)C#N)ccc1/N=N/c1ccc(Cl)cc1
inactive: DMS-273 21.5 µM | DMS-114 18.5 µM | SNB-78 36.7 µM | HOP-18 21 µM | KM-20L2 15.2 µM | LXFL 529 18.3 µM | M19-MEL 19.3 µM | RXF 631 26.3 µM

COC(=O)C1=CCON(c2ccccc2)C1c1ccccc1 (configuration not stated)
inactive: DMS-273 56.5 µM | DMS-114 48.3 µM | HOP-18 > 100 µM | XF498 52 µM | KM-20L2 69.8 µM | LXFL 529 34.7 µM | M19-MEL 62.8 µM

O=c1cc(-c2ccccc2)[nH]c2cc(Cl)cc(Cl)c12
inactive: DMS-273 12.3 µM | DMS-114 26.4 µM | HOP-18 20.8 µM | LXFL 529 67.8 µM | M19-MEL 35.5 µM

O=C1C2=C(c3ccccc31)C(c1ccccc1)NC(S)=N2 (configuration not stated)
inactive: DMS-273 26.9 µM | DMS-114 30.7 µM | XF498 56 µM | KM-20L2 42 µM | LXFL 529 26.2 µM | M19-MEL 67.9 µM | RXF 631 43.2 µM

COc1cc(O)c2c(c1O)C(=O)c1cc(C)ncc1C2=O
inactive: DMS-114 18.9 µM | SNB-78 37.8 µM | HOP-18 > 50 µM | XF498 20.6 µM | KM-20L2 17.2 µM | LXFL 529 18.6 µM | M19-MEL 7.91 µM

N#CNc1nc(C(=O)Nc2ccc(Cl)cc2)cc(-c2ccccc2)n1
inactive: DMS-273 > 100 µM | DMS-114 > 100 µM | SNB-78 > 100 µM | HOP-18 > 100 µM | XF498 > 100 µM | KM-20L2 > 100 µM | LXFL 529 > 100 µM | M19-MEL > 100 µM | RXF 631 > 100 µM

O=C1c2c(nc3ccccc3c2-c2ccccc2)CN1Nc1ccccn1
inactive: DMS-273 > 89.9 µM | DMS-114 27.5 µM | SNB-78 11.5 µM | XF498 > 100 µM | LXFL 529 51.9 µM | M19-MEL > 100 µM | RXF 631 15.8 µM

Cc1cc(Cl)ccc1NC1=NC(=O)C(CC(=O)Nc2ccc(Cl)cc2Cl)S1 (configuration not stated)
inactive: DMS-273 > 100 µM | DMS-114 > 100 µM | SNB-78 > 100 µM | XF498 38.1 µM | KM-20L2 > 100 µM | LXFL 529 > 100 µM | M19-MEL > 100 µM | RXF 631 > 100 µM

C/C=C/C=C/C=C/C=C/C(=O)O
inactive: DMS-273 > 100 µM | DMS-114 > 100 µM | SNB-78 > 100 µM | HOP-18 > 100 µM | KM-20L2 > 100 µM | LXFL 529 > 100 µM | RXF 631 > 100 µM

CC1CC(=O)C(CC(=O)O)[C@H]1C(C(=O)C(=O)Nc1cc(Cl)ccc1Cl)[N+](=O)[O-] (some centres not stated)
inactive: DMS-114 > 100 µM | HOP-18 > 100 µM | XF498 > 100 µM | KM-20L2 > 100 µM | M19-MEL > 100 µM

COc1cc2nc(-c3cccc(N(C)C)c3)cc(O)c2cc1OC
inactive: DMS-273 3.85 µM | DMS-114 4.73 µM | SNB-78 5.83 µM | HOP-18 3.27 µM | XF498 6.32 µM | KM-20L2 2.11 µM | LXFL 529 5.22 µM | M19-MEL 5.55 µM

Nc1ccc2c(c1)C(=O)N(OS(=O)(=O)c1ccccc1)C2=O
inactive: DMS-273 > 100 µM | DMS-114 > 100 µM | SNB-78 > 100 µM | HOP-18 > 100 µM | XF498 > 100 µM | KM-20L2 > 100 µM | LXFL 529 82 µM | M19-MEL > 100 µM | RXF 631 > 100 µM

Nc1ccc(O)c2c1C(=O)c1c(N)ccc(O)c1C2=O
inactive: DMS-273 > 100 µM | DMS-114 > 100 µM | SNB-78 > 100 µM | XF498 > 100 µM | LXFL 529 > 100 µM | M19-MEL > 100 µM
